The text below walks through data of patent publication US20200316087A1, “NOVEL COMBINATION THERAPY FOR ANXIETY DISORDERS, EPILEPSY, AND PAIN” (priority 2017, published 2020).

The test system of series [1] is CFA-induced mechanical hyperalgesia. The experiment in a line: Complete Freund's adjuvant inflammatory pain, von Frey filament test. Type of series: in vivo, rats. How it is done:
Complete Freund's adjuvant (CFA) contains Mycobacterium butyricum, inducing inflammation and an increase in paw thickness. 0.1 mL of CFA was injected in the right hind paw of Sprague Dawley male rats under isoflurane anaesthesia. Mechanical hyperalgesia may be measured 2-3 days after CFA treatment. Rats (n=6) are placed in elevated boxes with a mesh floor. Von Frey filaments (expressed in g) are applied perpendicularly to the hindpaws, starting with the lowest filament (1.4 g) then increased until hindpaw withdrawal is observed. After each measurement, rats receive the next dose of drug (every 20 min) until the maximum threshold (26 g) is observed. For the antagonist study, rats are pretreated with the benzodiazepine site antagonist (10 min) and then receive the next dose of drug (every 20 min) until the pre-CFA threshold was observed.
3PBC.HCl was dissolved in a mixture containing 10% ethanol, 50% propylene glycol, and 40% sterile water. BCCt was dissolved in propylene glycol and then heated in a water bath up to 70° C. Midazolam (Akorn, Inc.) was dissolved in 0.9% saline. Doses were expressed as the weight of the drug in milligrams per kilogram of body weight and drugs were administered intraperitoneally.
Starting 2 days after CFA treatment, mechanical hyperalgesia was measured on days 0, 4, and 8. On days 1-3 and 5-7 rats were pretreated with either 3PBC.HCl (5.6 mg/kg), β-carboline-3-carboxylate-t-butyl ester (BCCt) (3.2 mg/kg) or saline twice a day (a.m. injections (9:00-10:30) and p.m. injections (5:00-6:30)) in their home cages. Rats were treated with midazolam (5.6 mg/kg) immediately after pretreatment of 3PBC.HCl, BCCt, or saline. On days 0 and 4, rats only received p.m. injections due to the mechanical hyperalgesia test done in the a.m.
The anti-hyperalgesic effects of midazolam were quantified for each animal as percent maximal possible effect (MPE) for each drug dose by using the following formula: percent MPE=[(post-drug value for a behavioral response (g)−pre-drug value for a behavioral response)/(pre-CFA value-pre-drug value for a behavioral response)×100.

Series [2] deals with seizures in amygdala kindled rats. Description: Basolateral amygdala kindling. Type of series: in vivo. On the procedure: Seizure kindling models evaluate effects of drugs on the sensitization of the nervous system to seizure induction. In this test, drugs were evaluated for their ability to impact seizure parameters in rats that were fully kindled by daily electrical stimulation of their amygdala. Valproic acid was used as a positive control. Experiments were conducted using the general procedures of Zwart et al. (J. Pharmacol. Exp. Ther., 2014, 351:124-133). A bipolar electrode for electrical stimulation and EEG recording was stereotaxically implanted into one hemisphere of the basolateral amygdala (AP −2.2, ML −4.8, DV −8.5 mm, relative to bregma) of male Wistar rats. After post-operative recovery, electrical kindling begins, where a subthreshold constant current (400 μA, 1 ms, monophasic square-wave pulses, 60 Hz for 1 sec) is given once a day Monday-Friday for about 4-6 weeks until a rat is fully kindled. A fully kindled rat has experienced 10 consecutive stage 5 seizures or 10 of its last 12 were stage 5 according to the Racine Scale.
Twelve fully kindled rats were assigned to this study, and eight rats were selected and randomized to initial compound treatment groups from baseline after discharge threshold (ADT), seizure severity score, and after discharge duration (ADD). […] On test day, rats were dosed 30 min prior to beginning stimulation. After the pre-treatment, rats were stimulated using an ascending staircase sequence beginning at 10 μA and increasing in log unit steps of 10, 16, 25, 40, 65, 100, 160, 250, and 400 μA. Animals were stimulated until they were assigned a Seizure Severity Score for a visually observably seizure or they reached the 400 μA threshold limit. ADD was determined following testing. ADT was the current that induced a seizure; measurements were scale-adjusted to capture the stimulation scale change required to observe a seizure from the previous baseline to the ADT scored on test day. […] The average scale adjusted ADT was approximately 0.63 μA in vehicle treated rats.
Racine score of behavioral response to stimulation: 0=no behavioral response; 1=immobility, staring and/or facial clonus; 2=head nodding, jaw clonus, and/or tongue protrusion; 3=unilateral forelimb clonus; 4=bilateral forelimb clonus and/or rearing; 5=bilateral forelimb clonus with rearing and loss of balance.
After-Discharge Duration (ADD) is the duration of the first after-discharge.
ADT, ADD, and severity scores were analyzed by ANOVA. Seizure severity data was also analyzed by the nonparametric Skillings-Mack test, a generalization of the Friedman test for one-way repeated measures designs. Posthoc tests when reported were either by Dunnett's method (seizure severity) or using Wilcoxon sign rank tests (ADT and ADD). Valproic acid, used as a positive control was not used in ANOVA calculations.

Series [3] concerns motor performance on an inverted screen. Description: Rat inverted screen test (motor impairment). To be noted: rats. The text has this: The motor effects of Diazepam and KRM-II-81 were studied on the inverted screen. The inverted screen test is used to measure whether or not a test compound induces muscle relaxation. When a test subject is placed on a wire screen which is then inverted, the reaction is to climb to the opposite side so they are no longer hanging upside down.
Male, Sprague Dawley rats (Harlan Sprague Dawley, Indianapolis, Ind.) were used and weighed 90-110 g when evaluated in experiments. […] Rats were placed onto the top of a wire screen, which was then inverted so that the rats were hanging upside down.
Male Sprague-Dawley rats (n=5) were dosed i.p. (vehicle=1% carboxymethyl cellulose) with diazepam (3, 10, or 30 mg/kg), KRM-II-81 (10, 30, or 60 mg/kg) or HZ-166 (30 mg/kg) 30 minutes prior to testing. Rats were placed onto the top of a wire screen, which was then inverted so that the rats were hanging upside down. […] Results were analyzed using ANOVA (Dunnett's test: *P<0.05).
(§1) For the in vivo assays, minimal effective doses (MED) were calculated in mg/kg. MED was defined as the lowest dose administered that produced statistically significant protection compared to vehicle control in the anticonvulsant assays. The MED, or minimal toxic dose (MTD) for motor impairment, was the minimal dose required to produce statistically-significant impairment in motor performance. Doses tested are shown in the figures and tables and are generally dosed in ½ log increments. The protective index (PT) was calculated at the MTD/MED.

In a further series the test system is PTZ seizure threshold. Description: Pentylenetetrazole (PTZ, i.v.)-induced seizure threshold. It counts as in vivo, rats. On the procedure: Male […] Sprague-Dawley rats (Indianapolis, Ind.) were randomly assigned to treatment groups and dosed with vehicle (vehicle=1% carboxymethyl cellulose) with diazepam (0.1, 0.3, or 1 mg/kg) or test compound (3, 10, 30, or 60 mg/kg) 30 minutes prior to testing. Rats were placed in a restrainer and a winged infusion needle was inserted into the lateral tail vein. Intravenous infusion with 10 mg/ml PTZ at a rate of 0.5 ml/min was initiated until a clonic convulsion occurred, and the time to clonic convulsion was recorded in sec or a maximum of 4 min was recorded. Following infusion, rats are euthanized. The dose of PTZ required to elicit a clonic convulsion was calculated using the infusion rate, concentration of PTZ, time to clonic convulsion, and animal weight.

For series [4], the system named is electroshock-induced seizures. The experiment in a line: Mouse electroshock-induced seizure model. Type of series: in vivo. The note with it: mice. How it is done: This assay detects effects of compounds that produce generalized seizures and those that dampen seizure spread. Male, CD1 mice (Taconic Farms) were studied at weights of 21-32 g. Mice=10/dose) were used with Wahlquist Model H stimulator with 0.2 sec stimulation with corneal electrodes. […] Mice were euthanized immediately following the test. Tonic extension was used as the primary endpoint.
as §1

For another series, the system named is PTZ-induced clonus. The experiment in a line: Pentylenetetrazole (PTZ, 35 mg/kg s.c.)-induced clonic convulsions. Type of series: in vivo. To be noted: rats. How it is done: After the inverted screen test, the rats were dosed with pentylenetetrazole (PTZ)(35 mg/kg, s.c.) in a volume of 1 ml/kg and placed in an observation cage (40.6×20.3×15.2 cm) with a floor containing […] of wood chip bedding material. PTZ dose was determined to be ˜EC97 for producing clonic convulsions.

The mark [5] stands for this setting: MED producing maximal protection (0% seizures).

A value given as a limit tells only on which side of the number the result lay.

As to `CCOC(=O)c1ncn2c1CN(C)C(=O)c1cc(F)ccc1-2` [Flumazenil, flumazenil], the “effect on antinociceptive effects of KRM-II-81” value in series [1] (flumazenil pre-treatment before cumulative doses of KRM-II-81, CFA rats) is recorded as “dose-dependently attenuated”.

Consider `CC(C)(C)OC(=O)c1cc2c(cn1)[nH]c1ccccc12` [BCCt, β-carboline-3-carboxylate-t-butyl ester], for which the “percent maximal possible effect (MPE) of midazolam” value in series [1] (midazolam 5.6 mg/kg after 7 days of repeated midazolam with BCCt (3.2 mg/kg) pretreatment twice a day) was determined as 92 % MPE.

For `Cc1ncc2n1-c1ccc(Cl)cc1C(c1ccccc1F)=NC2` [midazolam], the “percent maximal possible effect (MPE) of midazolam” value in series [1] (midazolam 5.6 mg/kg after 7 days of repeated midazolam with saline pretreatment) came to 17 % MPE. In addition, the “percent maximal possible effect (MPE), attenuation of mechanical hyperalgesia” value in series [1] (midazolam 5.6 mg/kg i.p., Day 0, prior to repeated treatment, CFA rats) was 100 % MPE.

Consider `CCCOc1cc2c(cn1)[nH]c1ccccc12.Cl` [3-PBC.HCl], for which the “percent maximal possible effect of midazolam” value in series [1] (midazolam 5.6 mg/kg after 7 days of repeated midazolam with 3PBC.HCl (5.6 mg/kg) pretreatment twice a day) is listed as 52 % MMPE.

For the compound `C#Cc1ccc2c(c1)C(c1ccccn1)=NCc1c(C(=O)OCC)ncn1-2` [HZ-166, ethyl 8-ethynyl-6-(pyridin-2-yl)-4H-benzo[f]imidazo[1,5-a][1,4]diazepine-3-carboxylate, reference compound], the “After-Discharge Duration to Criteria” value in series [2] (MED for producing after-discharge duration ≤30 sec) was over 60 mg/kg. For the same compound, the “After-Discharge Threshold to Criteria” value in series [2] (MED for producing after-discharge threshold ≥3) is over 60 mg/kg. Also, the “Seizure Severity to Criteria” value in series [2] (MED for producing seizure severity score ≤2) was over 60 mg/kg. Besides, in series [2] (amygdala kindled rats), the “After-Discharge Duration Potency (MED)” value is over 60 mg/kg, the “After-Discharge Threshold Potency (MED)” value is listed as over 60 mg/kg and the “Seizure Severity Poteny (MED)” value was over 60 mg/kg. In addition, the “Seizure free scores (seizure severity=0)” value in series [2] (amygdala kindled rats, groups of 8) is listed as 0/8. Moreover, the “muscle relaxation on inverted screen (result in words)” value in series [3] (i.p., 30 min prior, KRM-II-81 10-60 mg/kg, HZ-166 30 mg/kg) is “Neither HZ-166 nor KRM-II-81 induced significant muscle relaxation”. Moreover, the “dose at which signs of muscle relaxation began to appear” value in series [3] (i.p., inverted screen) is 30 mg/kg. The “PTZ Threshold to Criteria” value in the series on PTZ seizure threshold (MED for producing ≥2× PTZ seizure threshold at baseline) is over 60 mg/kg. The “PTZ Threshold Poteny (MED)” value in the series on PTZ seizure threshold (lowest dose with statistically significant effect, rats, PTZ i.v.) was over 60 mg/kg. The “effect on dose of PTZ required to induce convulsions” value in the series with PTZ seizure threshold (rats, PTZ i.v. infusion, pretreatment 30 min) was “not active and displayed little protection up to 60 mg/kg”. In addition, the “Electroshock to Criteria” value in series [4] (setting [5]) is reported as over 30 mg/kg. In series [4] (lowest dose with statistically significant protection vs vehicle), the “Electroshock (minimal effective dose, MED)” value was found to be 30 mg/kg. In series [4], the “protection against electroshock-induced seizures” value was “not efficacious up to 30 mg/kg”. The “PTZ Clonus to Criteria 1” value in the series with PTZ-induced clonus (setting [5]) is on record as over 30 mg/kg. The “PTZ Clonus Potency (MED)” value with PTZ-induced clonus (lowest dose with statistically significant protection, PTZ 35 mg/kg s.c.) is over 30 mg/kg. In the series with PTZ-induced clonus (PTZ 35 mg/kg s.c.), the “protection against PTZ-induced clonus” value was “did not significantly separate from vehicle up to 30 mg/kg”.

As for `CCCC(CCC)C(=O)O` [valproate, Valproic acid, reference compound], the “motor impairment on inverted screen” value in series [3] (300 mg/kg, positive control) was “full motor impairment”.
